Experimental data: article PMC9501633, “Synthesis, Characterisation and Mechanism of Action of Anticancer 3-Fluoroazetidin-2-ones” (Pharmaceuticals, 2022)

Legend:
Hs578T cells = assay: AlamarBlue cell viability assay; type: cell-based; details: Homo sapiens, Hs-578T
Protocol: (§1) The potent 3-fluoro-β-lactam compound 33 synthesised was also evaluated in the triple-negative MDA-MB-231 cell line which lacks expression of the estrogen and progesterone receptors (ER/PR) and the HER2 receptor. […]. Compound 32 was also evaluated in the triple-negative breast cancer cell line Hs578T and its isogenic subclone Hs578T(i)8 (Figure 4C). Hs578Ts(i)8 cells have 2.5-fold more migratory capacity and 3-fold more invasive capacity through the extracellular matrix than the parental cell line (Hs578T) and have 30% more CD44+/CD24-/low cells and in vivo proliferation. […]. The human breast carcinoma cell lines MCF-7 and MDA-MB-231 were purchased from the European Collection of Animal Cell Cultures (ECACC, Salisbury, UK). The SW-480 cells were a kind gift from Dr. Brian Flood, School of Biochemistry and Immunology, Trinity College Dublin. The human breast tumour cell line MCF-7 was cultured in Eagles minimum essential medium with 10% foetal bovine serum, 2 mM L-glutamine and 100 μg/mL penicillin/streptomycin. The medium was supplemented with 1% non-essential amino acids. The human breast tumour cell line MDA-MB-231 cells were maintained in Dulbecco’s modified Eagle’s medium (DMEM) with the addition of penicillin/streptomycin (100 µg/mL), 10% (v/v) foetal bovine serum and 2 mM L-glutamine (complete medium). Breast cancer cell line Hs578T and its isogenic subclone Hs578T(i)8 were a kind gift from Dr. Susan McDonnell, School of Chemical and Bioprocess Engineering, University College Dublin. SW-480 cells, triple-negative breast cancer Hs578T cells and invasive variant Hs578T8i cells were cultured in DMEM with GlutaMAX-I, with the same supplement in the absence of non-essential amino acids. HEK-293T cells (normal epithelial embryonic kidney cells) were cultured in DMEM with GlutaMAX-I in the absence of non-essential amino acids. The SW-480 cells were cultured in DMEM with GlutaMAX-I, with the same supplement in the absence of non-essential amino acids. All media contained 100 U/mL penicillin and 100 μg/mL streptomycin. The cells were seeded into pre-warmed complete medium (10 × 10^4 cells/mL) and maintained at a cell density of 2–19 × 10^5 cells /mL by the addition of fresh media. The cell number was monitored using a haemocytometer. Cells were maintained at 37 °C in 5% CO2 in a humidified incubator. […]
(§2) Figure 4 Antiproliferative activity of 3-fluoro β-lactams on MCF-7, MDA-MB-231, Hs578T and Hs578T isogenic subclone Hs578T(i)8 breast cancer cells and non-tumourigenic HEK-293T cells. […] Cell viability was expressed as a percentage of vehicle control (ethanol 1% (v/v))-treated cells. […] Cell viability was expressed as a percentage of vehicle control (ethanol 1% (v/v))-treated cells and was measured by AlamarBlue assay (average of three independent experiments). […]

Hs578Ts(i)8 cells = assay: AlamarBlue cell viability assay; type: cell-based
Protocol: as §1, §2

[1] = tested on: purified bovine brain tubulin; assay: Tubulin polymerisation assay (turbidimetric, 340 nm); type: biochemical
Protocol: Tubulin polymerisation was investigated using a turbidimetric assay which determines the light scattering by microtubules (absorbance at 340 nm) that is proportional to the microtubule polymer concentration.
Tubulin polymerisation was monitored with purified bovine tubulin using the BK006 kit supplied by Cytoskeleton Inc. (Denver, CO, USA), carried out following the manufacturer’s instructions with the standard assay conditions. Purified (>99%) bovine brain tubulin (3 mg/mL) in a buffer containing PIPES (80 mM, pH 6.9), EGTA (0.5 mM), MgCl2 (2 mM), GTP (1 mM) and glycerol (10%) was incubated at 37 °C in the presence of either vehicle (2% (v/v) ddH2O) or paclitaxel (10 µM), CA-4 (10 μM) or 33 (10 and 30 µM). The effect on tubulin assembly was monitored turbidimetrically at 340 nm in a Spectramax 340 PC spectrophotometer (Molecular Devices, Sunnyvale, CA, USA), with the light scattered depending on the concentration of polymerised microtubules formed. The absorbance was measured at 30 s intervals for 60 min.
Figure 7 Effect of β-lactam compound 33 (10 and 30 µM) and paclitaxel (10 µM) on in vitro tubulin polymerisation. Purified bovine tubulin and GTP were mixed in a 96-well plate. Compounds were added and the reaction was started by warming the solution from 4 to 37 °C. Ethanol (1% v/v) was used as a vehicle control. The effect on tubulin assembly was monitored in a Spectramax 340PC spectrophotometer at 340 nm at 30 s intervals for 30 min at 37 °C. […] Each experiment was performed in duplicate.

SMILES | IC50 (Hs578T cells) [nM] | IC50 (Hs578Ts(i)8 cells) [nM] | reduction in the Vmax of tubulin polymerisation compared to the vehicle ([1]; 10 μM) [fold] | reduction in the Vmax of tubulin polymerisation compared to the vehicle ([1]; 30 µM) [fold] | effect on tubulin polymerisation ([1]; paclitaxel 10 µM, 33 10 and 30 µM)
COc1ccc(/C=C\c2cc(OC)c(OC)c(OC)c2)cc1O [CA-4, combretastatin A-4, reference compound] | 8 | 20 | – | – | –
COc1ccc(C2C(F)C(=O)N2c2cc(OC)c(OC)c(OC)c2)cc1F (centres unmarked) [Compound 33, 3-Fluoro-4-(3-fluoro-4-methoxyphenyl)-1-(3,4,5-trimethoxyphenyl)azetidin-2-one] | – | – | 3.5 | 4 | inhibited tubulin polymerisation
